The text below walks through data of ChEMBL document CHEMBL5120903, “Constituents of Croton megalocarpus with Potential Anti-HIV Activity” (J Nat Prod, 2022).

Data set [1] in a line: Cytotoxicity against human MT4 cells and measured after 5 days by MTT assay. It is filed as toxicity, cell-based. In general terms: Tetrazolium dyes change colour on reduction, which living cells bring about.
For data set [2], the system named is Human immunodeficiency virus 1. The experiment in a line: Anti-retroviral activity against HIV-1 IIIB infected in human MT4 cells assessed as inhibition of viral replication and measured after 5 days by MTT assay. To be noted: Human immunodeficiency virus 1, IIIB, MT4, 120 h. It is filed as functional, organism-based.
Data set [3] is described as follows: Cytotoxicity against human FM55M1 cells assessed as reduction in cell viability measured upto 50 uM incubated for 72 hrs by cell titre 96 reagent based plate reader analysis. To be noted: fm55m1, 72 h. It is filed as toxicity.
The target of data set [4] is Human immunodeficiency virus type 1 protease (Human immunodeficiency virus 1) (UniProt Q72874). The data set is described as follows: Inhibition of HIV-1 protease at 10 ug/ml by fluorescence based plate reader assay relative to control. To be noted: dose 10.0 µg/ml.

Regarding `C=C1CC[C@]2(O)OC(=O)C(C)=C2[C@@H]2[C@@H]1[C@@]13O[C@@]1(C[C@@H](C)[C@H]3O)[C@H]1O[C@@]21C`, inhibition in data set [1] was half-maximal at 510 µM (IC50 at 5 days). In addition, in data set [2], the IC50 – broadly, the concentration needed to halve the response being measured – turned out to be 0.0055 µM. In addition, the Activity result in data set [3] is “Non-Toxic”. Moreover, the inhibition (in general, the drop in the measured response relative to a control, in per cent) in data set [4] amounted to 75%.

The compound `C=C1CC[C@@H]2OC(=O)C(C)=C2[C@@H]2[C@@H]1[C@@]13O[C@@]1([C@@H](Cl)[C@@H](C)[C@H]3OC(C)=O)[C@@H](O)[C@@]2(C)O` displayed a half-maximal inhibitory concentration (IC50) at 5 days in data set [1] of 209 µM. Also, the IC50 in data set [2] came out at 0.028 µM. The Activity entry in data set [3] is on record as “Non-Toxic”. This compound also returned an inhibition in data set [4] of 63%.
